In one data set the target is glycine/NMDA receptor. Kind of data set: glycine/NMDA receptor affinity (1 μM glycine-stimulated [3H]-MK801 binding, rat brain membranes; also estimated by electrophysiology). On the procedure: The assay is conducted using rat brain membrane homogenates that are enriched in NMDA receptors. The membranes are prepared as follows. Frozen rat brains (obtained from Pel-Freez, Rogers, Ark.) are homogenized in 15 volumes (w/v) of ice cold 0.32M sucrose. The homogenate is spun at 1,000×g for ten minutes. The supernatant is collected and spun for 20 minutes at 44,000×g. The pellet is suspended in 15 volumes of water (relative to original brain weight). The homogenate is again spun at 44,000×g for twenty minutes. The pellet is resuspended in 5 volumes of water and the suspension is freeze-thawed 2 times. After the final thaw cycle, the suspension is brought to 15 volumes with water and spun at 44,000×g for twenty minutes. The pellet is resuspended in 5 volumes of ice-cold 10 mM HEPES, and is titrated to pH 7.4 with KOH containing 0.04% Triton X-100. […] The volume is then brought to 15 with ice-cold 10 mM HEPES, pH 7.4, and spun/washed three times with spins of 44,000×g between washes. The final pellet is suspended in three volumes of 50 mM HEPES, pH 7.4 and the protein concentration is determined with a standard dye-binding protein assay (Bio-Rad, Richmond, Calif.). The suspension is stored at -80° C. until used. Only HPLC grade water is used for all buffers and suspensions/washings. The extensive washings are necessary to remove as much endogenous glycine from the membrane preparation as possible.
Nonspecific binding is defined as the […] presence of PCP (final concentration: 100 μM). […] A 500 nM concentration (final) of 5,7-dichlorokynurenic (DCK) acid is added to all assay tubes. This concentration of the glycine antagonist DCK "buffers" most of the residual endogenous glycine that is not removed by the extensive washing steps that are carried out during the membrane preparation procedure.
Filtration is accomplished using a Brandel 48 well cell harvester. Filtered membranes are washed three times with 3 mL each of ice cold buffer. Filters are transferred to scintillation vials and 5 mL of scintillation cocktail is added. The vials are shaken overnight and the radioactivity is counted by liquid scintillation spectroscopy. The assays are done in triplicate and all experiments are conducted at least three times.
(§1) The binding affinities at NMDA receptor glycine sites also were estimated by electrophysiological assay either using cloned rat NMDA receptors expressed in Xenopus oocytes, or non-NMDA receptors expressed in oocytes by whole rat brain poly(A)^+ RNA. […] For NMDA receptors Kb s were approximated by averaging values at three subtype combinations (NR1A/NR2A, NR1A/NR2B, and NR1A/NR2C).

In another data set the test system is MES-induced seizures. Kind of data set: anticonvulsant activity, maximum electroshock-induced seizure (MES) experiment in mice. The format is in vivo, mouse. As to conditions: Mus musculus, iv, read-out: ED50 as an anticonvulsant in MES experiment. As for the experimental part:
The anticonvulsant activity of the glycine antagonists may be assessed in the maximum electroshock-induced seizure (MES) assay in mice. […] The seizure stimulus parameters were: 50 mA, 60 Hz, rectangular pulse, width 0.8 msec, duration 200 msec. Tonic hind limb extension observed after application of the electrical stimulus was recorded as occurrence of seizure. The drug was applied i.v. as an aqueous basic solution.

Another data set addresses non-NMDA receptor. Kind of data set: non-NMDA receptor affinity. The class given is binding, rat. On the procedure:
(§2) Filtered membranes are washed three times with 3 mL each of ice cold buffer.
as §2, §1

For another data set, the system named is katalepsy. As to conditions: pigeons; cited from earlier work.
Data set [1] concerns PCP-like behavioral effects. As to conditions: in vivo; cited from earlier work.
Another data set concerns brain ischemia / neurons. As to conditions: cited from earlier work.
A short description of the next data set: log P (literature). The format is physicochemical. As to conditions: from benzene to pyridine N-oxide.
Data set [2] deals with strychnine-insensitive glycine sites associated with NMDA receptors. As to conditions: cited from earlier work.

Each structure is given as a SMILES string.

Regarding `O=c1[nH]c2cc([N+](=O)[O-])c[n+]([O-])c2[nH]c1=O` [Compound 64, 7-Nitro-5-(N-oxy)aza-1,4-dihydroquinoxaline-2,3-dione], the values for the Ki on glycine/NMDA receptor and on non-NMDA receptor were 130 nM and 340 nM, respectively. In the data set with MES-induced seizures, the ED50 was 3 to 4 mg/kg.

For the compound `c1ccc(C2(N3CCCCC3)CCCCC2)cc1` [PCP, phencyclidine], the katalepsy result in the data set with katalepsy is listed as “characteristic katalepsy in pigeons”. Besides, the “PCP-like behavioral side effects” value in data set [1] is “behavioral excitation (hyperlocomotion) in rodents”. For the same compound, the neuroprotective efficacy result with brain ischemia / neurons was “neuroprotective efficacy both in vitro and in vivo”.

Regarding `[O-][n+]1ccccc1` [pyridine N-oxide], the “difference in log P” value in “log P (literature)” is -3.84.

With `Oc1nc2cccnc2nc1O` [pyrido (2,3-b)pyrazine-2,3-diol], in data set [2], the “inhibition of [3H]glycine binding” value is reported as “active inhibitor”.

Values taken from patent US5863916A, “8-aza, 6-aza and 6,8-diaza-1,4-dihydroquinoxaline-2,3-diones and the use thereof as antagonists for the glycine/NMDA receptor” (priority 1997, dated 1999).
